Patent US20080269298A1, “Benzimidazol-1-YL-thiophene compounds for the treatment of cancer” (priority 2002, published 2008)

How the values were obtained:
[1] = biological target: T1, PLK1 kinase domain (Homo sapiens, UniProt P53350); assay: Assay for Inhibition of PLK1 (SPA enzyme activity); type: biochemical; conditions: 2 μM ATP, read-out: Ave pIC50 PLK Enzyme Inhibition (converted)
T1 construct: made in house; host or cells: baculovirus-infected T. ni insect cells
Description: All procedures were performed at 4° C. Cells were lysed in so mM HEPES, 200 mM NaCl, so mM imidazole, 5% glycerol; pH 7.5. The homogenate was centrifuged at 14K rpm in a SLA-1500 rotor for 1 hr and the supernatant filtered through a 1.2 micron filter. The supernatant was loaded onto a Nickel chelating Sepharose (Amersham Pharmacia) column and washed with lysis buffer. Protein was eluted using 20%, 30% and 100% buffer B steps where buffer B is 50 mM HEPES, 200 mM NaCl, 300 mM imidazole, 5% glycerol; pH 7.5. Fractions containing PLK were determined by SDS-PAGE. Fractions containing PLK were diluted five-fold with so mM HEPES, 1 mM DTT, 5% glycerol; pH 7.5, then loaded on an SP Sepharose (Amersham Pharmacia) column. After washing the column with so mM HEPES, 1 mM DTT, 5% glycerol; pH 7.5, PLK was step eluted with so mM HEPES, 1 mM DTT, 500 mM NaCl; 5% glycerol; pH 7.5. PLK was concentrated using a 10 kDa molecular weight cutoff membrane and then loaded onto a Superdex 200 gel filtration (Amersham Pharmacia) column equilibrated in 25 mM HEPES, 1 mM DTT, 500 mM NaCl, 5% glycerol; pH 7.5. Fractions containing PLK were determined by SDS-PAGE. PLK was pooled, aliquoted and stored at −80° C. Samples were quality controlled using mass spectrometry, N-terminal sequencing and amino acid analysis.
B. Enzyme activity+/−inhibitors was determined as follows:
Compounds were added to the plate (1 μl in […]). […] Reaction Mix B is prepared as follows at 4° C.: • Reaction Mix B (Enzyme Mix) • 25 mM HEPES, pH 7.2 • 15 mM MgCl2 • 0.15 mg/ml BSA • 2 mM DTT • 2-10 nM PLK1 kinase domain
Reaction Mix A (20 μl) is added per well. Reaction Mix B (20 μl) is added per well. Incubate 1.5 hrs. at RT. The enzymatic reaction is stopped with 175 μl of SPA/EDTA bead mix (29 mM EDTA, 2.5 mg/ml Streptavidin-coated SPA in Standard Dulbecco's PBS (without Mg^2+ and Ca^2+), 60 μM ATP). Plates are sealed spun (after a 1 hr incubation at RT) at 1,000×g for 7 min or settled overnight, then plates counted in Packard TopCount for 30 seconds/well.

[2] = test system: lung (H460) tumor cell line; assay: Methylene Blue Growth Inhibition Assay, H460; type: cell-based; conditions: Homo sapiens, NCI-H460, 72 h; Cell Line H460, 3 days; read-out: MeB IC50
Description: (§1) Normal Human foreskin fibroblasts (HFF) and human colon (HCT116, RKO), lung (H460), prostate (PC3), and breast tumor (MCF7) cell lines were cultured in high glucose DMEM (Life Technologies) containing 10% fetal bovine serum (FBS) at 37° C. in a humidified 10% CO2, 90% air incubator. Cells were harvested using trypsin/EDTA, counted using a haemocytometer, and plated in 100 μl of the appropriate media, at the following densities, in a 96-well tissue culture plate (Falcon 3075): HFF 5,000 cells/well, HCT116 3,000 cells/well, RKO 2,500 cells/well, H460 2,000 cells/well, PC3 8,000 cells/well, MCF7 4,000 cells/well. The next day, compounds were diluted in DMEM containing 100 μg/ml gentamicin, at twice the final required concentration, from 10 mM stock solutions in DMSO. 100μ/well of these dilutions were added to the 100 μl of media currently on the cell plates. Medium containing 0.6% DMSO was added to control wells. Compounds diluted in DMEM were added to all cell lines. The final concentration of DMSO in all wells was 0.3%. Cells were incubated at 37° C., 10% CO2 for 3 days. Medium was removed by aspiration. Cell biomass was estimated by staining cells with […] per well methylene blue (Sigma M9140, 0.5% in 50:50 ethanol:water), and incubation at room temperature for at least 30 minutes. Stain was removed, and the plates rinsed under a gentle stream of water, and air-dried. To release stain from the cells 100 μl of solubilization solution was added (1% N-lauroyl sarcosine, Sodium salt, Sigma L5125, in PBS), and plates were shaken gently for about 30 minutes. Optical density at 620 nm was measured on a microplate reader. Percent inhibition of cell growth was calculated relative to vehicle treated control wells. Concentration of compound that inhibits 50% of cell growth (IC50) was interpolated using nonlinear regression (Levenberg-Marquardt) and the equation, y=Vmax*(1-(x/(K+x)))+Y2, where “K” was equal to the IC50. In Table 1, +=10−>30 uM; ++=1−10 uM: +++=<1 uM.

[3] = test system: colon (HCT116) tumor cell line; assay: Methylene Blue Growth Inhibition Assay, HCT116; type: cell-based; conditions: Homo sapiens, HCT-116, 72 h; Cell Line HCT116, 3 days; read-out: MeB IC50
Description: as §1

[4] = test system: Normal Human foreskin fibroblasts (HFF); assay: Methylene Blue Growth Inhibition Assay, HFF; type: cell-based; conditions: 72 h, Cell Line HFF, 3 days, read-out: MeB IC50
Description: as §1

[5] = test system: breast tumor (MCF7) cell line; assay: Methylene Blue Growth Inhibition Assay, MCF7; type: cell-based; conditions: Homo sapiens, 72 h; Cell Line MCF7, 3 days; read-out: MeB IC50
Description: as §1

[6] = test system: prostate (PC3) tumor cell line; assay: Methylene Blue Growth Inhibition Assay, PC3; type: cell-based; conditions: Homo sapiens, 72 h; Cell Line PC3, 3 days; read-out: MeB IC50
Description: as §1

[7] = test system: colon (RKO) tumor cell line; assay: Methylene Blue Growth Inhibition Assay, RKO; type: cell-based; conditions: Homo sapiens, 72 h, 3 days, read-out: MeB IC50
Description: as §1

T1 sequence (P53350 21-346): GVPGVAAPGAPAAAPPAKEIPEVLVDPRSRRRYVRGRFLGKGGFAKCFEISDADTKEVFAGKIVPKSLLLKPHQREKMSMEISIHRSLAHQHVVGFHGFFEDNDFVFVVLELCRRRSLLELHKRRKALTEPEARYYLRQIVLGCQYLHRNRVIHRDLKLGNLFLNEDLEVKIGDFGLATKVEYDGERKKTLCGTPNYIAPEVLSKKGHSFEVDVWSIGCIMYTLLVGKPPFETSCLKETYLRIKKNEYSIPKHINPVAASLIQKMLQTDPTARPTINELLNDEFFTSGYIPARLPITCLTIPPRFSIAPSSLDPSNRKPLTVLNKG

Compound | IC50 [1] [µM] | IC50 [2] [µM] | IC50 [3] [µM] | IC50 [4] [µM] | IC50 [5] [µM] | IC50 [6] [µM] | IC50 [7] [µM]
CS(=O)(=O)CCNC(=O)c1ccc2c(c1)ncn2-c1cc(OCc2ccccc2C(F)(F)F)c(C(N)=O)s1 [Example 155, 1-(5-(Aminocarbonyl)-4-{[2-(trifluoromethyl)benzyl]oxy}thien-2-yl)-N-[2-(methylsulfonyl)ethyl]-1H-benzimidazole-5-carboxamide] | < 0.1 | > 10 | > 10 | > 10 | > 10 | > 10 | > 10
COc1cc2ncn(-c3cc(OCc4ccccc4C#N)c(C(N)=O)s3)c2cc1OC [Example 95, 3-[(2-Cyanobenzyl)oxy]-5-(5,6-dimethoxy-1H-benzimidazol-1-yl)thiophene-2-carboxamide] | < 0.1 | 1 to 10 | 1 to 10 | > 10 | 1 to 10 | > 10 | 1 to 10
COc1cc2ncn(-c3cc(OCc4cccc(N(C)C)c4)c(C(N)=O)s3)c2cc1OC [Example 90, 5-(5,6-Dimethoxy-1H-benzimidazol-1-yl)-3-{[3-(dimethylamino)benzyl]oxy}thiophene-2-carboxamide] | < 0.1 | 1 to 10 | 1 to 10 | > 10 | 1 to 10 | > 10 | 1 to 10
CN(c1ccccc1)c1cc(-n2cnc3ccccc32)sc1C(N)=O [Example 131, 5-(1H-Benzimidazol-1-yl)-3-[methyl(phenyl)amino]thiophene-2-carboxamide] | 0.1 to 10 | 1 to 10 | 1 to 10 | > 10 | 1 to 10 | > 10 | 1 to 10
COc1cc2ncn(-c3cc(OS(=O)(=O)c4ccccc4[N+](=O)[O-])c(C(N)=O)s3)c2cc1OC [Example 153, 2-(Aminocarbonyl)-5-(5,6-dimethoxy-1H-benzimidazol-1-yl)thien-3-yl 2-nitrobenzenesulfonate] | < 0.1 | > 10 | > 10 | > 10 | > 10 | > 10 | > 10
NC(=O)c1sc(-n2cnc3ccccc32)cc1OCc1ccccc1[N+](=O)[O-] [Example 117, 5-(1H-Benzimidazol-1-yl)-3-[(2-nitrobenzyl)oxy]thiophene-2-carboxamide] | < 0.1 | < 1 | < 1 | > 10 | < 1 | 1 to 10 | < 1
C#Cc1ccccc1COc1cc(-n2cnc3cc(OC)c(OC)cc32)sc1C(N)=O [Example 106, 5-(5,6-Dimethoxy-1H-benzimidazol-1-yl)-3-[(2-ethynylbenzyl)oxy]thiophene-2-carboxamide] | < 0.1 | 1 to 10 | 1 to 10 | > 10 | 1 to 10 | > 10 | 1 to 10
NC(=O)c1sc(-n2cnc3cc(F)c(OCCN4CCOCC4)cc32)cc1OCc1ccccc1C(F)(F)F [Example 140, 5-[5-Fluoro-6-(2-morpholin-4-ylethoxy)-1H-benzimidazol-1-yl]-3-{[2-(trifluoromethyl)benzyl]oxy}thiophene-2-carboxamide] | < 0.1 | 1 to 10 | 1 to 10 | > 10 | 1 to 10 | 1 to 10 | < 1
COc1cc2ncn(-c3cc(OS(=O)(=O)c4ccccc4C)c(C(=O)O)s3)c2cc1OC [Example 151, 5-(5,6-Dimethoxy-1H-benzimidazol-1-yl)-3-{[(2-methylphenyl)sulfonyl]oxy}thiophene-2-carboxylic acid] | < 0.1 | > 10 | > 10 | > 10 | > 10 | > 10 | > 10
COc1cc2ncn(-c3cc(OCc4ccc(C(N)=O)cc4)c(C(N)=O)s3)c2cc1OC [Example 104, 3-{[4-(Aminocarbonyl)benzyl]oxy}-5-(5,6-dimethoxy-1H-benzimidazol-1-yl)thiophene-2-carboxamide] | < 0.1 | 1 to 10 | 1 to 10 | > 10 | 1 to 10 | > 10 | 1 to 10
NC(=O)c1sc(-n2cnc3cc4c(cc32)OC(F)(F)O4)cc1OCc1ccccc1C(F)(F)F [Example 88, 5-(2,2-Difluoro-5H-[1,3]dioxolo[4,5-f]benzimidazol-5-yl)-3-{[2-(trifluoromethyl)benzyl]oxy}thiophene-2-carboxamide] | 0.1 to 10 | > 10 | > 10 | > 10 | 1 to 10 | > 10 | > 10
COc1cc2ncn(-c3cc(OCc4ccccc4C(O)CO)c(C(N)=O)s3)c2cc1OC (stereo not drawn) [Example 109] | 0.1 to 10 | > 10 | > 10 | > 10 | > 10 | > 10 | > 10
COc1cc2ncn(-c3cc(OCc4ccccc4C(F)(F)F)c(C(N)=O)s3)c2cc1OCCN1CCN(C)CC1 [Example 136, 5-(5-(Methyloxy)-6-{[2-(4-methyl-1-piperazinyl)ethyl]oxy}-1H-benzimidazol-1-yl)-3-({[2-(trifluoromethyl)phenyl]methyl}oxy)-2-thiophenecarboxamide] | < 0.1 | < 1 | < 1 | 1 to 10 | < 1 | 1 to 10 | < 1
NC(=O)c1ccc2c(c1)ncn2-c1cc(OCc2ccccc2C(F)(F)F)c(C(N)=O)s1 [Example 125, 1-[5-(Aminocarbonyl)-4-({[2-(trifluoromethyl)phenyl]methyl}oxy)-2-thienyl]-1H-benzimidazole-5-carboxamide] | < 0.1 | 1 to 10 | 1 to 10 | > 10 | 1 to 10 | > 10 | 1 to 10
COc1cc2ncn(-c3cc(OCc4cccc(N)c4)c(C(N)=O)s3)c2cc1OC [Example 96, 3-[(3-Aminobenzyl)oxy]-5-(5,6-dimethoxy-1H-benzimidazol-1-yl)thiophene-2-carboxamide] | < 0.1 | 1 to 10 | 1 to 10 | > 10 | 1 to 10 | > 10 | 1 to 10
